# Source: US20100093700A1, “Methods of Treating Mood Disorders” (priority 2007, published 2010)
# What was measured:
# [1] = test system: apomorphine climbing; test: Standard apomorphine climbing mouse assay; assay type: in vivo; conditions: mice, p.o.
# Text: (§1) An assessment of dopamine antagonism was made in rodent models.
# [2] = molecular target: T1, dopamine D1 receptor (Rattus norvegicus, UniProt P18901); test: In-vitro binding, dopamine D1 receptor; conditions: dihydrochloride salt; read-out: binding affinity for dopamine D1 receptor (K1)
# T1 construct: from tissue; host or cells: brain
# T1 sequence (P18901 whole entry): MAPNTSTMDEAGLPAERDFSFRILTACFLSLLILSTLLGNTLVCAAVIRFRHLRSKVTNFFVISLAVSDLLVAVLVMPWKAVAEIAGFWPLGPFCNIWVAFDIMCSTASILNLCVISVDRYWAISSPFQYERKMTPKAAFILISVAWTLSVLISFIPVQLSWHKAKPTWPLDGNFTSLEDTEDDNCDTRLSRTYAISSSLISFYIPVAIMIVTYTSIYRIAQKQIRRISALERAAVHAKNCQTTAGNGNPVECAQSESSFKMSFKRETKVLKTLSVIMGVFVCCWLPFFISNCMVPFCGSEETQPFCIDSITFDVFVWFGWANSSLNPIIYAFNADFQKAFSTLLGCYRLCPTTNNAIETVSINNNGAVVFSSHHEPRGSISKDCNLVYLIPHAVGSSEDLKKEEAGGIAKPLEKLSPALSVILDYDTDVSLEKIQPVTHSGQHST
# [3] = molecular target: T2, dopamine D2 receptor (Rattus norvegicus, UniProt P61169); test: In-vitro binding, dopamine D2 receptor; conditions: dihydrochloride salt; read-out: binding affinity for dopamine D2 receptor (K1)
# T2 construct: relative to dopamine (D2) receptors in the brain; from tissue; host or cells: brain
# T2 sequence (P61169 whole entry): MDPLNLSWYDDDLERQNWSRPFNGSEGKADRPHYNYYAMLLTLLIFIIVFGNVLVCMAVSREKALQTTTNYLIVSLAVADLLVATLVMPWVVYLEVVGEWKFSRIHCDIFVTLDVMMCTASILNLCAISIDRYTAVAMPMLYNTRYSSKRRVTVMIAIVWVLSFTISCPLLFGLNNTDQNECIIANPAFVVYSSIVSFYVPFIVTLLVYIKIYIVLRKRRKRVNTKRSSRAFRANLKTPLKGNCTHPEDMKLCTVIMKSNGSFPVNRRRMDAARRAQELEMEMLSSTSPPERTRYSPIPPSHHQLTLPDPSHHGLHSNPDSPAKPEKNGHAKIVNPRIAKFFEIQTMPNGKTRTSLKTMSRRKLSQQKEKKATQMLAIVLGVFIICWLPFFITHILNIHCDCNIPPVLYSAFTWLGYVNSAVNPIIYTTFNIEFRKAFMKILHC
# [4] = molecular target: brain serotonin 5-HT2 receptor (UniProt P14842); test: In-vitro binding, brain serotonin 5-HT2 receptor; conditions: dihydrochloride salt; read-out: binding affinity for brain serotonin 5-HT2 receptor (K1)
# [5] = molecular target: T3, Adrenergic α1A (Rattus norvegicus, UniProt P43140); test: Radioligand binding 203100 Adrenergic α1A
# T3 construct: 203100
# T3 sequence (P43140 whole entry): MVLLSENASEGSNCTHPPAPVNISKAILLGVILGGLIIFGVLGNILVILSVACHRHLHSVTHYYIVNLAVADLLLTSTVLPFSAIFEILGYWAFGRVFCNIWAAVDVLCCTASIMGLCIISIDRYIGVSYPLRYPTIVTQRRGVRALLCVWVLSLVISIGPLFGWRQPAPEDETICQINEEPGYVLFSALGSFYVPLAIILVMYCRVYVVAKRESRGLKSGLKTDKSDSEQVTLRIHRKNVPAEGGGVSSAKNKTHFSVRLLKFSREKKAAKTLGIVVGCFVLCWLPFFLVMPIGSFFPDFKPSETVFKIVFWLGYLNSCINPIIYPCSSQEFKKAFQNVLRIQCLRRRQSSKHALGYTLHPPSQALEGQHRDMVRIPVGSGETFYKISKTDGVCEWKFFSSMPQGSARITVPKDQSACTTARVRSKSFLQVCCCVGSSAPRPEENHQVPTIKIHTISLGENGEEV
# Text: (§2) Receptor binding methods, α-adrenergic subtype specific, are provided below.
# [6] = test system: immobility; test: Tail suspension test; assay type: in vivo, mice; conditions: for reduction of immobility relative to vehicle control group: p<0.01
# Procedure: In a first experiment, mice (n−10/group) were treated with vehicle, 2.0, 5.0, or 10.0 mg/kg of 11-piperazin-1-yldibenzo[b,f][1,4]thiazepine s.c. 15 minutes prior to the test session. Mice were suspended from their tails for 7 minutes. During the last 5 minutes of the test, the duration of immobility was recorded. In a second experiment, mice (n=10/group) were treated with vehicle, 30 mg/kg 11-piperazin-1-yldibenzo[b,f][1,4]thiazepine, or 30 mg/kg fluoxetine p.o. 60 minutes prior to the test session. Mice were suspended from their tails for 7 minutes. During the last 5 minutes of the test, the duration of immobility was recorded.
# [7] = molecular target: D2 receptors (Homo sapiens, UniProt P14416); test: PET scans of primate subjects, D2; assay type: in vivo; conditions: preliminary PET
# Chain of D2 receptors (P14416 whole entry): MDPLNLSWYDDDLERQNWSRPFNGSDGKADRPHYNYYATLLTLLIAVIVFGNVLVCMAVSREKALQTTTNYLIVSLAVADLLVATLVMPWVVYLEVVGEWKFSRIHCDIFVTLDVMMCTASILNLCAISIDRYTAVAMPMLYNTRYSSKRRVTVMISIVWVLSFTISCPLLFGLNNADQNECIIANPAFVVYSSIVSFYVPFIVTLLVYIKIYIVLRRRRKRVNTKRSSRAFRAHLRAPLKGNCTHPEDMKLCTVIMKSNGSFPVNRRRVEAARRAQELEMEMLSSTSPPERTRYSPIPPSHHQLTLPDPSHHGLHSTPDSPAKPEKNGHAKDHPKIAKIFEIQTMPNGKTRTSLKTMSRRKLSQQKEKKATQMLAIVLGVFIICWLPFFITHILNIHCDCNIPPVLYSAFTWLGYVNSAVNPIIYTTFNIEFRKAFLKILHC
# [8] = Oral bioavailability in monkeys; assay type: in vivo; conditions: cynomolgus monkey, plasma
# [9] = molecular target: Uptake, Norepinephrine (Homo sapiens, UniProt P23975); test: Functional assay measuring norepinephrine uptake; assay type: cell-based; conditions: [3H]Norepinephrine uptake, MDCK cells; read-out: EC50/IC50
# Procedure: The following examples set forth parameters for the functional assay measuring norepinephrine uptake that was carried out.
# [10] = molecular target: T4, D1 receptors (Homo sapiens, UniProt P21728); test: PET scans of primate subjects, D1; assay type: in vivo; conditions: preliminary PET
# T4 construct: from tissue; host or cells: brain of living primates (PET)
# T4 sequence (P21728 whole entry): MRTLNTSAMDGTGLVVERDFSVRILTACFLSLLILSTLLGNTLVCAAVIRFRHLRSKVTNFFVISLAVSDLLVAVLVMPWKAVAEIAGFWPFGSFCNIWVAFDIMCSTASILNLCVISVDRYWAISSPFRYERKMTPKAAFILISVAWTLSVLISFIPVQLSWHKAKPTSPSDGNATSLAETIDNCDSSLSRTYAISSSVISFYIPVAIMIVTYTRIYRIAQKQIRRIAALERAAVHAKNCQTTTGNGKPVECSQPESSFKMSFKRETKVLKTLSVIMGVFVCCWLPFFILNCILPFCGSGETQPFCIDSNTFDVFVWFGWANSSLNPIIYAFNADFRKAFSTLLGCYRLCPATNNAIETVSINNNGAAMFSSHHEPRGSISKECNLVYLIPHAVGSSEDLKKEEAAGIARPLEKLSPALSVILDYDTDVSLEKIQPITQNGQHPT
# Text: (§3) The compound of Formula I is a dibenzothiazepine that has shown antidopaminergic activity.
# [11] = molecular target: T5, Adrenergic α1B (Rattus norvegicus, UniProt P15823); test: Radioligand binding 203200 Adrenergic α1B
# T5 construct: 203200
# Text: as §2
# [12] = Brain exposure in rats; assay type: in vivo; conditions: one hour after 30 μmol/kg po
# Procedure: Brain exposure was measured in rats. For concentrations of 11-piperazin-1-yldibenzo[b,f][1,4]thiazepine in brain, rats were dosed either po or iv (n=3 per dose route). At one hour after compound administration, blood and brain samples were obtained and then processed for analysis using HPLC/MS to measure concentrations of 11-piperazin-1-yldibenzo[b,f][1,4]thiazepine.
# [13] = molecular target: Adrenergic α2A (Homo sapiens, UniProt P08913); test: Radioligand binding Adrenergic α2A; conditions: hum
# Chain of Adrenergic α2A (P08913 whole entry): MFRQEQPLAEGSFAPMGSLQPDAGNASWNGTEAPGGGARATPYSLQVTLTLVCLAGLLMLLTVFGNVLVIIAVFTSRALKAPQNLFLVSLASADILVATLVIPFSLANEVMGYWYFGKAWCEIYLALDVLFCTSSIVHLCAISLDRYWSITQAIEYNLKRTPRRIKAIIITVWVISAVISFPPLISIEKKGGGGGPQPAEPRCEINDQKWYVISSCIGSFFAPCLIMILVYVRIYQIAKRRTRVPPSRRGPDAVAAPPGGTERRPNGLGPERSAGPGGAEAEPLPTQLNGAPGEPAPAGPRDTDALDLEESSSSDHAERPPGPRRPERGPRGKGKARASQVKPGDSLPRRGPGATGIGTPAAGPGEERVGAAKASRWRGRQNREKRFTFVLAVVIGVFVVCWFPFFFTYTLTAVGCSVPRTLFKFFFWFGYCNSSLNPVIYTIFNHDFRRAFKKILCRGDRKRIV
# [14] = test system: immobility; test: Mouse forced swim test (FST); assay type: in vivo; conditions: 15 minutes prior
# Procedure: The mouse forced swim test (FST) has been used to assess antidepressant potential of novel compounds (Porsolt; Lucki). Methods: Mice were placed in cylinders of water (25.0° C.±1.5° C.) for 6 minutes. The amount of immobility was quantified during the last 4 min of each session. The experimental observer was blind to the treatment conditions. […] Imipramine 45.0 mg/kg and citalopram 15.0 mg/kg were measured as the salt and administered ip 60 minutes prior to the behavioral session.
# [15] = molecular target: Transporter, Norepinephrine (NET) (Homo sapiens, UniProt P23975); test: Radioligand binding assay, norepinephrine transporter
# Procedure: The following examples set forth parameters for the radioligand binding assay that was carried out.
# [16] = test system: Adrenergic α2* Non-Selective; test: Radioligand binding 203900 Adrenergic α2 Non-Selective; conditions: rat
# Text: (§4) Receptor binding methods, α-adrenergic nonselective, are provided below.
# [17] = molecular target: T6, 5-HT1A receptors (Homo sapiens, UniProt P08908); test: PET scans of primate subjects, 5-HT1A; assay type: in vivo; conditions: preliminary PET
# T6 construct: from tissue; host or cells: brain of living primates (PET)
# T6 sequence (P08908 whole entry): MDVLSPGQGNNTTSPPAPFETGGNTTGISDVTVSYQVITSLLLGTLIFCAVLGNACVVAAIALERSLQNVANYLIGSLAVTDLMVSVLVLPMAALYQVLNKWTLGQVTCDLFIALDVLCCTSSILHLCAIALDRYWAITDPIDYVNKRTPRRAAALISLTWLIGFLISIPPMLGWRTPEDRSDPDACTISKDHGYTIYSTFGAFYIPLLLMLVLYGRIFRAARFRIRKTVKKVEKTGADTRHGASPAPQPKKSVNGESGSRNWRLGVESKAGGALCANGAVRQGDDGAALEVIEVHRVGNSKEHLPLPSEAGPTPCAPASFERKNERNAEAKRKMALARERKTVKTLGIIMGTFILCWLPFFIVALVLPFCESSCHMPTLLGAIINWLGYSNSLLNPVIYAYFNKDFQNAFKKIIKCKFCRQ
# Text: as §3
# [18] = test system: D-amphetamine locomotor activity; test: D-amphetamine locomotor activity test; assay type: in vivo, rat; conditions: rats, s.c., freebase
# Text: as §1
# [19] = molecular target: Adrenergic α2C (Homo sapiens, UniProt P18825); test: Radioligand binding Adrenergic α2C; conditions: hum
# [20] = molecular target: Adrenergic α2B (Homo sapiens, UniProt P18089); test: Radioligand binding Adrenergic α2B; conditions: hum
# Chain of Adrenergic α2B (P18089 whole entry): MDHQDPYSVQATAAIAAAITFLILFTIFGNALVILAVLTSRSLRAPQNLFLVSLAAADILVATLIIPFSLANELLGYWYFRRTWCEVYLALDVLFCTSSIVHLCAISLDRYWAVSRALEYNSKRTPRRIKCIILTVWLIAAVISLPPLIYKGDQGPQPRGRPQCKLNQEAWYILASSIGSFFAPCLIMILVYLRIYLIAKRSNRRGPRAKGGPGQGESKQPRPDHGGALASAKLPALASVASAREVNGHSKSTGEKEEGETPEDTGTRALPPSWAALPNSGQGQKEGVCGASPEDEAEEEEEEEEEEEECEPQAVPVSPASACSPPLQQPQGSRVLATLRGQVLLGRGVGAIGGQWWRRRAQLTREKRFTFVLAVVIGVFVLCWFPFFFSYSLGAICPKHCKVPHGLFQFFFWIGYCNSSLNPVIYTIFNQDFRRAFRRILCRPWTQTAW
# [21] = test system: Adrenergic α1* Non-Selective; test: Radioligand binding 203500 Adrenergic α1 Non-Selective; conditions: rat
# Text: as §4
# [22] = Oral bioavailability in dogs; assay type: in vivo; conditions: dog, plasma, Beagle dogs
# [23] = molecular target: T7, Adrenergic α1D (Homo sapiens, UniProt P25100); test: Radioligand binding 203400 Adrenergic α1D; conditions: hum
# T7 construct: host or cells: HEK-293
# T7 sequence (P25100 whole entry): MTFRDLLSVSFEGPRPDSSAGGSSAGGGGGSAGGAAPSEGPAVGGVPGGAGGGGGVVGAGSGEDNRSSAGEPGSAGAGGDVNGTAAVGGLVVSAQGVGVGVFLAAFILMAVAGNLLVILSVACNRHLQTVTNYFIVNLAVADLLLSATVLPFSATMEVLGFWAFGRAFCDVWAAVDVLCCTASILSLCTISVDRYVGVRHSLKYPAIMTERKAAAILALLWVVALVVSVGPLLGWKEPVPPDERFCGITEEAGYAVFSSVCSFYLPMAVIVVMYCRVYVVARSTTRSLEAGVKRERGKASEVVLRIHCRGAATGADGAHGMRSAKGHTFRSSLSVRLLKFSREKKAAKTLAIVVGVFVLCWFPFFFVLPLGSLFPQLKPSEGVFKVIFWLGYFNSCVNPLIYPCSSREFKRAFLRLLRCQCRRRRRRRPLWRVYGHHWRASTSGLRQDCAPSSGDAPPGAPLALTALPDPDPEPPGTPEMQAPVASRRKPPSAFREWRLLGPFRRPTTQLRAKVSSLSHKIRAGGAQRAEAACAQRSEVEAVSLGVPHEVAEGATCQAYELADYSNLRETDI
# Text: as §2
# [24] = molecular target: T8, 5HT Transporter (Homo sapiens, UniProt P31645); test: PET scans of primate subjects, 5HT Transporter; assay type: in vivo; conditions: preliminary PET
# T8 construct: from tissue; host or cells: brain of living primates (PET)
# Text: as §3
# [25] = molecular target: T9, 5-HT2A receptors (Homo sapiens, UniProt P28223); test: PET scans of primate subjects, 5-HT2A; assay type: in vivo; conditions: preliminary PET
# T9 construct: from tissue; host or cells: brain of living primates (PET)
# T9 sequence (P28223 whole entry): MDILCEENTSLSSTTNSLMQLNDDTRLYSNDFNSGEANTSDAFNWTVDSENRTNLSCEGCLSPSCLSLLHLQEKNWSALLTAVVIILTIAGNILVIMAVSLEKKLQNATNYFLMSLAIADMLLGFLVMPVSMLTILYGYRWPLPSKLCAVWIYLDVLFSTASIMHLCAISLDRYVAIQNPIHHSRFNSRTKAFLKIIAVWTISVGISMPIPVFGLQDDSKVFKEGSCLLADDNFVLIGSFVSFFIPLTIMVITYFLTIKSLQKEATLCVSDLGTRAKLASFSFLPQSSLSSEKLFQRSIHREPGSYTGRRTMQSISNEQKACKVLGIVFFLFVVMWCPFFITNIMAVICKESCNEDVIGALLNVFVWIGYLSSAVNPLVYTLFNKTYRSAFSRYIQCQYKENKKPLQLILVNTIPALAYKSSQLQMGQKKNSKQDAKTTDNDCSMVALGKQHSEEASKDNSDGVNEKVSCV
# Text: as §3
# [26] = 30 mg/kg p.o., 60 minutes prior
structure (smiles),measurement,setting,value
"Cl.Cl.c1ccc2c(c1)N=C(N1CCNCC1)c1ccccc1S2 [11-piperazin-1-yldibenzo[b,f][1,4]thiazepine, dihydrochloride salt]","in vivo antipsychotic activity, apomorphine mouse assay",[1],not found to be efficacious
same,Ki,[2],1490 nM
same,Ki,[3],234 nM
same,Ki,[4],27 nM
"c1ccc2c(c1)N=C(N1CCNCC1)c1ccccc1S2 [11-piperazin-1-yldibenzo[b,f][1,4]thiazepine]","in vivo antipsychotic activity, apomorphine mouse assay",[1],not shown to be efficacious
same,n (Hill coefficient),[5],1.03 ± 0.089
same,reduction of immobility relative to vehicle control group,[6]; 10.0 mg/kg s.c.,more than ½
same,reduction of immobility relative to vehicle control group,[6]; [26],more than ½
same,effect on duration of immobility,"[6]; 2.0, 5.0 or 10.0 mg/kg s.c., 15 minutes prior",reduced immobility at all doses tested
same,"receptor occupancy (PET), D2",[7],occupies
same,bioavailability,[8],37%
same,IC50,[9],13.4 nM
same,"receptor occupancy (PET), D1",[10],occupies
same,n (Hill coefficient),[11],1.1 ± 0.024
same,average concentration in brain tissue,[12],2240 nmol/g
same,n (Hill coefficient),[13],0.969 ± 0.012
same,effect on immobility in FST,[14]; 10.0 mg/kg sc,antidepressant effects in this assay comparable to imipramine
same,inhibition at 10 µM,[15],97%
same,% INH.,[16]; 10 μM,73%
same,IC50,[16],1410 nM
same,Ki,[16],1290 nM
same,"receptor occupancy (PET), 5-HT1A",[17],occupies
same,"in vivo antipsychotic activity, D-amphetamine locomotor activity test",[18],not found to be efficacious
same,"in vivo antipsychotic activity, D-amphetamine locomotor activity test",[18]; listed as Formula I,not shown to be efficacious
same,n (Hill coefficient),[19],1.1 ± 0.079
same,n (Hill coefficient),[20],0.902 ± 0.055
same,% INH.,[21]; 0.1 μM,61%
same,IC50,[21],69.3 nM
same,Ki,[21],37.2 nM
same,bioavailability,[22],42%
same,n (Hill coefficient),[23],0.984 ± 0.111
same,"occupancy (PET), 5HT Transporter",[24],occupies
same,"receptor occupancy (PET), 5-HT2A",[25],occupies
"OCCOCCN1CCN(C2=Nc3ccccc3Sc3ccccc32)CC1 [Quetiapine, quetiapine, reference compound]",effect on immobility in FST,"[14]; 5.0, 10.0 and 20.0 mg/kg sc",no effect
"CNCCC(Oc1ccc(C(F)(F)F)cc1)c1ccccc1 (centres unmarked) [fluoxetine, reference compound]",reduction of immobility relative to vehicle control group,[6]; [26],more than ½
